Laboratory results published in patent EP1881000A1, “Conjugates of 2-fluoro-2-deoxy-glucose and their uses as anti cancer agents” (INSTITUT NATIONAL DE LA SANTE ET DE LA RECHERCHE MEDICALE …, priority 2006, dated 2008).

Key:
[1] = tested on: M4Beu, a human melanoma cell line; assay: In vitro cytotoxicity assay (resazurin reduction test); assay type: cell-based; conditions: 48-h continuous drug exposure
Description: (§1) Normal human fibroblasts were purchased from Promocell (Heidelberg, Germany). This frozen culture was obtained from foreskin waste and the cells used in this work were from the seventh to twelfth passage of the culture. M4Beu, a human melanoma cell line, was established in the laboratory of Dr. J. F. Doré (INSERM, Unit 218, Lyon, France) from metastatic biopsy specimens and maintained in cell culture for almost 20 years in our lab. Breast cancer adenocarcinoma MCF 7, prostatic adenocarcinoma PC 3, colon adenocarcinoma DLD-1, lung non-small cell carcinoma A 549, ovary adenocarcinoma PA1 human cell lines and L 929 murine cell line were purchased from the European Collection of Cell Cultures (ECACC; Salisbury, United Kingdom). Murine Melanoma B16 was purchased from American Type of Culture Collection (ATCC, Manassas, USA) and murine colon carcinoma cell line CT-26 was obtained from Dr I. J. Fidler (University of Texas M.D. Anderson Cancer Center, Houston).
(§2) Stock cell cultures were maintained as monolayers in 75cm^2 culture flasks in Glutamax Eagle's minimum essential medium with Earle's salts (MEM; Gibco BRL, Paisley, UK) supplemented with 10% fetal calf serum (Sigma, St Quentin Fallavier, France), 1 mM sodium pyruvate (Gibco), 1X vitamins solution (Gibco), 1X non essential amino acids solution (Gibco) and 4 µg/ml of gentamicine (Gibco). Cells were grown at 37°C in a humidified atmosphere containing 5% CO2.
(§3) Cells were plated at a density of 5 x 10^3 cells per well in 96-well microplates (Nunclon™, Nunc, Roskilde, Denmark) in 150 µl of culture medium and were allowed to adhere for 16 h before treatment with the compound tested.
(§4) Stock solution of each compound was prepared in dimethylsulfoxide (DMSO) and kept at -20°C. until use. The percentage of DMSO was kept at 0.5% (v/v) whichever the concentration tested. […] Fifty microliters of a 4X solution in MEM was then added and a 48-h continuous drug exposure protocol was used. Then, the cytotoxic effect of compounds on tumour cells was tested by using Resazurin reduction test.
(§5) Resazurin was identified as the Alamar blue dye (O'Brien, J. et al.; European Journal of Biochemistry, 267, 5421-6, (2000)). The resazurin reduction test (RRT) was carried out according to the protocol described here. Briefly, plates were rinsed by 200 µl PBS (37° C, Gibco) using a multichannel dispenser (Labsystems, Helsinki, Finland) and emptied by overturning on absorbent toweling. Then, 150 µl of a 25 µg/ml solution of resazurin in MEM without SVF nor Phenol red was added in each well. The plates were incubated 1 h at 37° C. in an humidified atmosphere with 5% of CO2 for fluorescence development by living cells. Fluorescence was then measured on the automated 96-well plate reader Fluoroskan Ascent FL™ (Labsystems) using an excitation wavelength of 530 nm and an emission one of 590 nm.
(§6) Cytotoxic activity has been tested against the six human tumour cell lines breast adenocarcinoma MCF-7, colon adenocarcinoma DLD-1, ovary adenocarcinoma PA1, prostatic adenocarcinoma PC3, lung carcinoma A549, melanoma M4Beu and a primary culture of human fibroblasts.

[2] = tested on: Normal human fibroblasts; assay: as above; assay type: cell-based; conditions: Fibroblast, 48-h continuous drug exposure
Description: as §1, §2, §3, §4, §5, §6

[3] = tested on: colon adenocarcinoma DLD-1; assay: as above; assay type: cell-based; conditions: Homo sapiens, DLD1, 48-h continuous drug exposure
Description: as §1, §2, §3, §4, §5, §6

[4] = tested on: lung non-small cell carcinoma A 549; assay: as above; assay type: cell-based; conditions: Homo sapiens; A549; 48-h continuous drug exposure
Description: as §1, §2, §3, §4, §5, §6

[5] = tested on: ovary adenocarcinoma PA1; assay: as above; assay type: cell-based; conditions: Homo sapiens, 48-h continuous drug exposure
Description: as §1, §2, §3, §4, §5, §6

[6] = tested on: B16 melanoma; assay: Antitumour activity in B16-melanoma bearing mice, IP chemotherapy protocol; assay type: in vivo, C57BL6J male mice; conditions: for Life span of the animals: B16 melanoma-bearing mice; for antitumour activity according to the NCI criteria decisions: in words
Experimental: Drugs were dissolved in a mixture of dimethylacetamide (Sigma) and oleic macrogolglycerides (Labrafil® M1944Cs, Gattefossé) (10:90%, vol/vol).
It is performed in tumour-bearing mice following an IP chemotherapy protocol.
To establish B16 melanoma model, 3 x 10^5 B16F0 cells (ATCC, Manassas, USA; in vitro doubling time of 16 hours) were suspended in 100 µL of phosphate buffer solution (PBS®, life Technologies) and injected into the subcutaneous tissue of the right flank of C57BL6J male mice, 6-weeks-old (Charles River, France) on day zero.
For both molecules and both animal models, treatment was initiated eight days post tumour grafting, when the tumours had reached a measurable size, corresponding to a calculated tumour weight (CTW) of 40 and 70 mg for B16 and CT-26 models respectively.
Animals were then randomly divided in both treatment and control groups. […] Two dosages have been evaluated, MTD and 0.75 MTD
Mice were weighed and observed every two days over a 30-day -period to evaluate general clinical state. Length and width of tumours were measured every two days over a 30-day-period using a dedicated slide calliper.
The Calculated Tumour Weight (CTW) of each tumour was determined according to the formula: CTW(mg) = L × 1^2 /2 [formula] with L = length in mm and 1= width in mm.
For subcutaneously growing tumours, antitumour activity is often assessed by using the log10 cell kill (LCK) which is calculated from the following formula: LCK = T-C value in days/3.32 × Td [formula] T is the median time (in days) required for the treatment group tumours to reach a predetermined CTW (e.g. 1000 mg). C is the median time (in days) required for the control group tumours to reach the same CTW. Td is the tumour volume doubling time (in days) estimated from the best fit straight line from a log-linear growth plot of the control group tumours in exponential growth.
An increase in life span was defined by the ratio of the median survival of drug-treated mice (Mt) versus controls (Mc): a survival Mt/Mc equal or higher than 125 % was sought
Mean weight loss of the group was used to evaluate treatment side effects. A mean body weight loss of greater 20% was considered to indicate an excessively toxic dosage.

[7] = B16 melanoma, dosage not stated
[8] = B16 melanoma, 75% MTD, IP D8, D12, D16
[9] = B16 melanoma, MTD, IP D8, D12, D16

| SMILES | IC50 [1] | IC50 [2] | IC50 [3] | IC50 [4] | IC50 [5] | LCK [6, 7] | Life span of the animals [6] | Antitumour Efficacy [6, 8] | LCK [6, 8] | Survival Mt/Mc [6, 8] | Weight loss (% max) [6, 8] | Antitumour Efficacy [6, 9] | LCK [6, 9] | Survival Mt/Mc [6, 9] | Weight loss (% max) [6, 9] | tumour growth inhibition (CTW time-course) ([6]; B16 melanoma, both MTD and 0,75 MTD dosages, vs non-treated and vehicle-treated groups, p< 0.05) | antitumour activity according to the NCI criteria decisions ([6]; B16 melanoma) | antitumour activity according to the NCI criteria decisions ([6]; B16 melanoma, listed as Chlorambucil) |
| --- | --- | --- | --- | --- | --- | --- | --- | --- | --- | --- | --- | --- | --- | --- | --- | --- | --- | --- |
| O=C(O)CCCc1ccc(N(CCCl)CCCl)cc1 [chlorambucil, reference compound] | > 100 µM | 99 ± 2 µM | 47 ± 17 µM | 43 ± 14 µM | 2.8 ± 0.4 µM | < 0.7 | not | - (LCK < 0.7 inactive drug (-)) | 0.05 | 0.67 | 7.3% | - (LCK < 0.7 inactive drug (-)) | 0.24 | 1 | 13.6% | failed to induce any tumour growth inhibition | inactive | failed in exhibiting any antitumour activity |
| CC(=O)OC[C@H]1O[C@@H](NC(=O)CNC(=O)CCCc2ccc(N(CCCl)CCCl)cc2)[C@H](F)[C@@H](OC(C)=O)[C@@H]1OC(C)=O [Compound 21a, N-[2-(3,4,6-tri-O-acetyl-2-deoxy-2-fluoro-β-D-glucopyranosylamino)-2-oxoethyl]-4-{4-[bis(2-chloroethyl)amino]phenyl}butanamide] | 6.8 ± 0.9 µM | 4.1 ± 0.1 µM | 4 ± 3 µM | 5 ± 2 µM | 1 ± 0.1 µM | around 1.1 | increased | + (0.7 < LCK < 1.2 active drug (+)) | 1.10 | 1.18 | 16% | + (0.7 < LCK < 1.2 active drug (+)) | 1.02 | 0.74 | 15.7% |  | active |  |
| CC(=O)OC[C@H]1O[C@@H](Oc2ccc(NC(=O)CNC(=O)CCCc3ccc(N(CCCl)CCCl)cc3)cc2)[C@H](F)[C@@H](OC(C)=O)[C@@H]1OC(C)=O [Compound 40a, N-{2-[4-(3,4,6-tri-O-acetyl-2-deoxy-2-fluoro-β-D-glucopyranosyloxy)phenyl]amino-2-oxoethyl}-4-{4-[bis(2-chloroethyl)amino]phenyl}butanamide] | 15 ± 6 µM | 17 ± 6 µM | 6 ± 2 µM | 10 ± 5 µM | 1.5 ± 0.5 µM | around 1.5 | increased | ++ (1.7 < LCK < 1.9 highly active drug (++)) | 1.81 | 1.5 | 13.6% | ++ (1.7 < LCK < 1.9 highly active drug (++)) | 1.53 | 0.8 | 16.9% |  | highly active |  |
